Reference: patent publication US20200352976A1, “HYPOMETHYLATING AGENTS FOR USE IN TREATMENT OF CANCER” (Otsuka Pharmaceutical Co., Ltd, priority 2019, published 2020)
Several values for one entry are separate records, joined by “and”; a condition that tells them apart may be missing. Identical values can stand only once.

Key:
[1] = Phase 3 trial pharmacokinetics and exposure response; assay type: in vivo, human
Experimental: A previously developed Population PK model was applied to calculate model-derived estimates for total cycle exposures (Cmax and AUC) from sparse PK samples collected in Cycle 1 for Compound I-1 and decitabine for use in exposure-response analysis for efficacy and safety. The analyses of exposure-efficacy and exposure-safety relationships were performed separately for patients who received Compound I-1 and patients who received decitabine IV. The following analyses were performed to assess relationships of CR with exposure for each exposure measure: frequencies of CR were tabulated and compared between tertiles of exposure; distributions of exposure were compared for patients with and without CR using box plots; and probability of CR was explored using logistic regression models.

[2] = tested on: treatment naïve acute myeloid leukemia (TN-AML); test: Phase 3 randomized trial Compound I-1 vs treatment choice: CR, OS, PFS, EFS, subgroup analyses; assay type: in vivo, human; settings: for EFS HR (95% CI) / PFS HR (95% CI): Compound I-1/TC
Experimental: A Phase 3 randomized trial comparing Compound I-1 to a treatment choice of azacitidine, decitabine, or Low Dose Ara-C(LDAC) in patients with AML was performed.
The patients were randomized 1:1 to either Compound I-1 (60 mg/m^2/d subcutaneous injection for 5 days of a 28-day cycle), or a preselected treatment choice of azacitidine, decitabine, or LDAC at standard doses. AML diagnosis and response status were assessed by an independent blinded central pathologist. CR and OS were the co-primary endpoints.
Compound I-1 powder was reconstituted at a concentration of 100 mg/mL and administered subcutaneously (SC) at a dose of 60 mg/m^2 daily on days 1-5 of a 28-day cycle.
LDAC was given at a dose of 20 mg SC twice daily (BID) on days 1-10 of a 28-day cycle. Decitabine was given at a dose of 20 mg/m^2 as a 1-hour intravenous (IV) infusion on days 1-5 of a 28-day cycle. Azacitidine was given IV or SC daily on days 1-7 of a 28-day cycle at a dose of 75 mg/m^2. Other TC treatment parameters such as dose adjustment guidelines followed locally approved prescribing information and institutional standard practice.
Two co-primary endpoints were used: complete response (CR) rate based on modified International Working Group (IWG) 2003 AML Response Criteria and OS (the number of days from randomization to death). Secondary endpoints included CRc (CR+CR with incomplete blood count recovery [CRi]+CR with incomplete platelet recovery [CRp]) rate, number of days alive and out of the hospital (NDAOH), progression-free survival (PFS), health related quality of life (QOL) by EQ-5D (consisting of the EQ-5D-5L descriptive system and the EQ Visual Analogue Scale [EQ VAS]), duration of CR (the time from first CR to time of relapse), incidence and severity of adverse events (AEs), and 30- and 60-day all-cause mortality.
CR rate was compared between Compound I-1 and TC groups using Cochran Mantel-Haenszel test at an alpha of 0.04, stratified by the stratification factors used at randomization. OS curves were estimated using Kaplan-Meier (K-M) method and formally compared between Compound I-1 and TC groups using a 2-sided stratified log-rank test, stratified by the same stratification factors used at randomization. Sensitivity analyses were conducted for CR rate and OS to evaluate the robustness of the treatment effect.
CRc rate was compared between treatment groups using a Cochran Mantel-Haenszel test with the same stratification variable as for CR and OS. NDAOH was compared between treatment groups using an analysis of variance model (ANOVA) with stratification variables used as fixed factors. PFS was compared between treatment groups using a stratified log-rank test.
The number of RBC and platelet transfusions up to Day 180 were summarized descriptively. 95% CI of the mean was also provided. The EQ-5D-5L index values and EQ VAS up to Day 180 were analyzed descriptively and using a mixed model approach for repeated measures.
Data obtained during the trial of EXAMPLE 4 were further analyzed for selected subgroups of patients including patients who achieved CR in patients who received at least 4 or 6 treatment cycles.
TN-AML patients ineligible for intensive chemotherapy (IC) due to age ≥75 y, coexisting morbidities, or ECOG PS 2-3 were randomized 1:1 to either Compound I-1 (60 mg/m^2/d SC for 5-days Q28 days) or a preselected treatment choice (TC) of azacitidine (AZA), decitabine (DEC), or low-dose Ara-C(LDAC) at the prescribed dosing schedule. AML diagnosis and response status were assessed by an independent central pathologist blinded to randomization assignment. Complete response (CR) and overall survival (OS) were the co-primary endpoints. The patients' characteristics, number of treatment cycles, reasons for treatment discontinuation, CR, and OS including analyses by number of cycles received including prospective subgroups, and OS analyses of responders and non-responders were analyzed. […]

[3] = number of days alive and out of the hospital
[4] = patients with at least 4 cycles
[5] = patients with at least 4 cycles (n = 476)
[6] = patients with at least 6 cycles
[7] = patients with at least 6 cycles (n = 375)

Nc1ncn([C@H]2CC(OP(=O)(O)OC[C@H]3O[C@@H](n4cnc5c(=O)[nH]c(N)nc54)CC3O)[C@@H](CO)O2)c(=O)n1 (stereo partly drawn) [Compound I-1]
Exposure to active metabolite decitabine ([1]; Compound I-1 SC vs decitabine IV): longer exposure to the active metabolite decitabine | Time of highest mean plasma Compound I-1 concentration (first collection time point) ([1]; after SC injection): 1.5 h | CR odds ratio (logistic regression) ([2]; Compound I-1 vs TC): 1.14 | CR rate Treatment Difference ([2]; Compound I-1 vs TC): 1.92% | CRc rate Treatment Difference ([2]; Compound I-1 vs TC): 0.39 | NDAOH LS Mean Treatment Difference ([2]; Compound I-1 vs TC): −7.8 | Overall survival hazard ratio ([2]; Compound I-1 vs each treatment choice): less than 1 | 12-month survival rate ([2]; ITT): 37% | 24-month survival rate ([2]; ITT): 18% | Median PFS ([2]; ITT): 5.3 months | Overall Survival K-M Estimate, 25th percentile ([2]; ITT): 71.0 days | Overall Survival K-M Estimate, 75th percentile ([2]; ITT): 584.0 days | Overall Survival K-M Estimate, Median ([2]; ITT): 213 days and 213.0 days | PFS K-M Estimate, Median ([2]; ITT): 159 days | Survival, 75th percentile ([2]; ITT): 19.5 months | Median EFS ([2]; ITT Population (n = 815)): 5.1 months | Median OS ([2]; ITT Population (n = 815)): 7.1 months | EFS HR (95% CI) ([2]; ITT Population): 0.85 (0.74-0.98), p 0.02 | PFS HR ([2]; ITT, Compound I-1 vs TC): 0.99 (0.86-1.15), p 0.93 | 12-month survival rate ([2]; ITT, as fraction): 0.37 | 24-month survival rate ([2]; ITT, as fraction): 0.18 | CRc (CR + CRi + CRp) ([2]; ITT, N = 408 / 407): 93 subjects | Complete Response (CR) ([2]; ITT, N = 408 Compound I-1, N = 407 TC): 79 subjects | Overall survival hazard ratio ([2]; baseline TP53 mutations (94 patients), Compound I-1 vs treatment choice): 1.8 | Median duration of CR ([2]; complete responders): 7.2 months | EQ VAS LS mean change from baseline ([2]; first 6 months): 0.87 | Platelet transfusions, mean ([2]; first 6 months): 12.5 units | RBC transfusions, mean ([2]; first 6 months): 16.2 units | Index EQ-5D-5L score LS mean difference ([2]; first 6 months, Compound I-1 vs TC): −0.019 | Mean NDAOH over 6 months ([2]; in vivo): 3.3 months | NDAOH per patient-year rate ([2]; in vivo): 297 days | One-year survival rate ([2]; landmark analysis (approximately 4 months), at least 4 cycles): 51% | Overall survival hazard ratio ([2]; landmark analysis, greater than 3 treatment cycles, Compound I-1 vs TC): 0.78 | Treatment Discontinuation Before 4 Cycles: Progressive Disease ([2]; n = 408 I-1, n = 407 TC): 7.6% | Treatment Discontinuation Before 6 Cycles: Progressive Disease ([2]; n = 408 I-1, n = 407 TC): 10.8% | OS HR ([2]; non-responders, at least 6 cycles, Compound I-1 vs TC): 0.73 | NDAOH in First 6 Months, LS Mean [2, 3]: 98.9 | NDAOH in First 6 Months, Mean [2, 3]: 98.1 | Median EFS ([2]; patients who achieved an objective response (CR, CRp, CRi, or PR)): 17.4 m | EFS HR ([2]; patients who achieved an objective response, Compound I-1 vs TC): 0.68 | Median OS [2, 4]: 15.6 months | CR Rate ([2]; patients with at least 4 cycles (n = 235 I-1; n = 241 TC)): 33.6% | Median EFS [2, 5]: 12.1 months | Median PFS [2, 5]: 10.3 months | EFS HR (95% CI) [2, 4]: 0.74 (0.61-0.9), p 0.002 | PFS HR (95% CI) [2, 4]: 0.88 (0.73-1.06), p 0.17 | OS HR (95% CI) ([2]; patients with at least 4 cycles, Compound I-1 vs TC): 0.78 (0.64, 0.96), p 0.02 and 0.78 (0.64-0.96), p 0.02 | Median OS [2, 6]: 19.5 months | CR Rate ([2]; patients with at least 6 cycles (n = 187 I-1; n = 188 TC)): 40.1% | Median EFS [2, 7]: 14.9 months | Median PFS [2, 7]: 11.9 months | EFS HR (95% CI) [2, 6]: 0.69 (0.56-0.86), p 0.001 | PFS HR (95% CI) [2, 6]: 0.86 (0.7-1.07), p 0.17 | OS HR (95% CI) ([2]; patients with at least 6 cycles, Compound I-1 vs TC): 0.69 (0.54, 0.88), p 0.002 and 0.69 (0.54-0.88), p 0.002 | OS HR ([2]; responders (CR, CRp, CRi, or PR), at least 6 cycles, Compound I-1 vs TC): 0.66 | OS HR ([2]; subjects who achieved any CR (CR, CRp, or CRi), Compound I-1 vs TC, post hoc): 0.72 | Overall survival hazard ratio ([2]; without TP53 mutations (696 patients), Compound I-1 vs treatment choice): 0.86
